Like-named read-outs stand apart in the source and are kept apart here. Square brackets hold non-standard residues; d marks the D form. Peptide text beside a SMILES is read from it. AEEA = NCCOCCOCC(=O)O
Experiments:
human GLP-1 R = target: T1, human GLP-1 R (Homo sapiens, UniProt P43220); experiment: Human GLP-1 receptor efficacy assay (cAMP induction, FlashPlate); type: cell-based; conditions: Table 2; read-out: hGLP-1 R EC50
T1 construct: expressed in transfected cells
Procedure: On the day of analysis, growth medium was removed and the cells were washed once with 200 μl Tyrode buffer [Tyrode's Salts (9.6 g/l), 10 mM HEPES, pH 7.4]. […] The reaction was stopped by addition of 25 μl 0.5 M HCl and incubated on ice for 60 min.

human CCK-B R = target: T2, human CCK-B R (Homo sapiens, UniProt P32239); experiment: Human CCK-B receptor efficacy assay (AlphaScreen SureFire p-ERK); type: cell-based; conditions: read-out: hCCK-B R EC50
T2 construct: expressed in transfected cells
T2 sequence (P32239 1-447): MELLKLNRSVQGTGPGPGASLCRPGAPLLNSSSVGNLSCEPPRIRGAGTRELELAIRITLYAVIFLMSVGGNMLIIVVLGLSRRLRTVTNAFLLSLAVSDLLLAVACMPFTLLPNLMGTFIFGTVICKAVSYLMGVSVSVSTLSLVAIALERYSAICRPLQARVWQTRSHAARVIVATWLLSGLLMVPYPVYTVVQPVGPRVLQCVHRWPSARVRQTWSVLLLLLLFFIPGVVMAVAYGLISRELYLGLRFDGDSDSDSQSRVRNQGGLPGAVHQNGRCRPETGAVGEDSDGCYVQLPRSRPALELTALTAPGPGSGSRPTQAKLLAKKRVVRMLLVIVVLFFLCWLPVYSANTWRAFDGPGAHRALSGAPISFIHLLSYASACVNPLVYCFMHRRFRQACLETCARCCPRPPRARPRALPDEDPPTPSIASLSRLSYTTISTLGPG

T1 sequence (P43220 24-463): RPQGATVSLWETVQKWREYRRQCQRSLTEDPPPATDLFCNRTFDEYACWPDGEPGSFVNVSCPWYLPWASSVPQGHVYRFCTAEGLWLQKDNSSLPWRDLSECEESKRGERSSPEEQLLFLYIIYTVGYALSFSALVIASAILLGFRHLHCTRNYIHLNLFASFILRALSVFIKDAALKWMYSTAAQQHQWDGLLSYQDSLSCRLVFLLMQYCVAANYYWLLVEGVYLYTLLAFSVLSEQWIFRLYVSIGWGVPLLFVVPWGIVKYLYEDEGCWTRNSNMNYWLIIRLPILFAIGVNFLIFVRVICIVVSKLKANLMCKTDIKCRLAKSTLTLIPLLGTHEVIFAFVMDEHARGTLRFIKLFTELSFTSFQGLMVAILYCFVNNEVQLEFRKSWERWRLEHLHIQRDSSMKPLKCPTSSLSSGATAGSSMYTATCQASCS

EC50 (human GLP-1 R) [nM] | EC50 (human CCK-B R; Table 2) [nM] | EC50 (human CCK-B R; Table 3) [nM] | SMILES
0.041 | 8.5 | – | CC[C@H](C)[C@H](NC(=O)[C@H](Cc1ccccc1)NC(=O)[C@H](CC(C)C)NC(=O)[C@H](CCCNC(=N)N)NC(=O)[C@@H](NC(=O)[C@H](C)NC(=O)[C@H](CCC(=O)O)NC(=O)[C@H](CCC(=O)O)NC(=O)[C@H](CCC(=O)O)NC(=O)[C@H](CCSC)NC(=O)[C@H](CCC(N)=O)NC(=O)[C@H](CCCCN)NC(=O)[C@H](CO)NC(=O)[C@H](CC(C)C)NC(=O)[C@H](CC(=O)O)NC(=O)[C@H](CO)NC(=O)[C@@H](NC(=O)[C@H](Cc1ccccc1)NC(=O)[C@@H](NC(=O)CNC(=O)[C@H](CCC(=O)O)NC(=O)CNC(=O)[C@@H](N)Cc1c[nH]cn1)[C@@H](C)O)[C@@H](C)O)C(C)C)C(=O)N[C@@H](CCC(=O)O)C(=O)N[C@@H](Cc1ccccc1)C(=O)N[C@@H](CC(C)C)C(=O)N[C@@H](CCCCN)C(=O)N[C@@H](CC(N)=O)C(=O)NCCOCCOCC(=O)NCCOCCOCC(=O)N[C@@H](Cc1ccc(O)cc1)C(=O)NCC(=O)N[C@@H](Cc1c[nH]c2ccccc12)C(=O)N[C@@H](CC(C)C)C(=O)N[C@@H](CC(=O)O)C(=O)N[C@@H](Cc1ccccc1)C(N)=O [Compound 63, [Phe25]Exendin-4(1-28)-Peg3-Peg3-[Leu4]Gastrin6]
0.046 | 12 | – | CC[C@H](C)[C@H](NC(=O)[C@H](Cc1ccccc1)NC(=O)[C@H](CC(C)C)NC(=O)[C@H](CCCNC(=N)N)NC(=O)[C@@H](NC(=O)[C@H](C)NC(=O)[C@H](CCC(=O)O)NC(=O)[C@H](CCC(=O)O)NC(=O)[C@H](CCC(=O)O)NC(=O)[C@H](CCSC)NC(=O)[C@H](Cc1ccc(O)cc1)NC(=O)[C@H](CCCCN)NC(=O)[C@H](CO)NC(=O)[C@H](CC(C)C)NC(=O)[C@H](CC(=O)O)NC(=O)[C@H](CO)NC(=O)[C@@H](NC(=O)[C@H](Cc1ccccc1)NC(=O)[C@@H](NC(=O)CNC(=O)[C@H](CCC(=O)O)NC(=O)CNC(=O)[C@@H](N)Cc1c[nH]cn1)[C@@H](C)O)[C@@H](C)O)C(C)C)C(=O)N[C@@H](CCC(=O)O)C(=O)N[C@@H](Cc1c[nH]c2ccccc12)C(=O)N[C@@H](CC(C)C)C(=O)N[C@@H](CCCCN)C(=O)N[C@@H](CC(N)=O)C(=O)NCCOCCOCC(=O)NCCOCCOCC(=O)N[C@@H](Cc1ccc(O)cc1)C(=O)NCC(=O)N[C@@H](Cc1c[nH]c2ccccc12)C(=O)N[C@@H](CC(C)C)C(=O)N[C@@H](CC(=O)O)C(=O)N[C@@H](Cc1ccccc1)C(N)=O [Compound 65, [Tyr13]Exendin-4(1-28)-Peg3-Peg3-[Leu4]Gastrin6] (H-HGEGTFTSDLSKYMEEEAVRLFIEWLKN[AEEA][AEEA]YGWLDF-NH2)
– | 1200 | – | CC[C@H](C)[C@H](NC(=O)[C@H](Cc1ccccc1)NC(=O)[C@H](CC(C)C)NC(=O)[C@H](CCCNC(=N)N)NC(=O)[C@@H](NC(=O)[C@H](C)NC(=O)[C@H](CCC(=O)O)NC(=O)[C@H](CCC(=O)O)NC(=O)[C@H](CCC(=O)O)NC(=O)[C@H](CC(C)C)NC(=O)[C@H](Cc1ccc(O)cc1)NC(=O)[C@H](CCCCN)NC(=O)[C@H](CO)NC(=O)[C@H](CC(C)C)NC(=O)[C@H](CC(=O)O)NC(=O)[C@H](CO)NC(=O)[C@@H](NC(=O)[C@H](Cc1ccccc1)NC(=O)[C@@H](NC(=O)CNC(=O)[C@H](CCC(=O)O)NC(=O)CNC(=O)[C@@H](N)Cc1c[nH]cn1)[C@@H](C)O)[C@@H](C)O)C(C)C)C(=O)N[C@@H](CCC(=O)O)C(=O)N[C@@H](Cc1ccccc1)C(=O)N[C@@H](CC(C)C)C(=O)N[C@@H](CCCCN)C(=O)NCCOCCOCC(=O)NCCOCCOCC(=O)N[C@@H](Cc1ccc(O)cc1)C(=O)NCC(=O)N[C@@H](Cc1ccccc1)C(=O)N[C@@H](CC(C)C)C(=O)N[C@@H](CC(=O)O)C(=O)N[C@@H](Cc1ccccc1)C(N)=O [Compound 89, [Leu14, Phe25,Tyr13]Exendin-4(1-27)-Peg3-Peg3-[Leu4, Phe3]Gastrin6] (H-HGEGTFTSDLSKYLEEEAVRLFIEFLK[AEEA][AEEA]YGFLDF-NH2)
– | – | 18 | CCCCCCCCCCCCCCCC(=O)N[C@@H](CCC(=O)NCCCC[C@H](NC(=O)[C@@H](NC(=O)[C@H](CC(C)C)NC(=O)[C@H](Cc1c[nH]c2ccccc12)NC(=O)[C@H](C)NC(=O)[C@@H](NC(=O)[C@H](Cc1ccccc1)NC(=O)[C@H](CCC(=O)O)NC(=O)[C@H](CCCCN)NC(=O)[C@H](C)NC(=O)[C@H](C)NC(=O)[C@H](CCC(N)=O)NC(=O)CNC(=O)[C@H](CCC(=O)O)NC(=O)[C@H](CC(C)C)NC(=O)[C@H](Cc1ccc(O)cc1)NC(=O)[C@H](CO)NC(=O)[C@H](CO)NC(=O)[C@@H](NC(=O)[C@H](CC(=O)O)NC(=O)[C@H](CO)NC(=O)[C@@H](NC(=O)[C@H](Cc1ccccc1)NC(=O)[C@@H](NC(=O)CNC(=O)[C@H](CCC(=O)O)NC(=O)[C@H](C)NC(=O)[C@@H](N)Cc1c[nH]cn1)[C@@H](C)O)[C@@H](C)O)C(C)C)[C@@H](C)CC)C(C)C)C(=O)NCC(=O)N[C@@H](CCCNC(=N)N)C(=O)NCC(=O)NCCOCCOCC(=O)NCCOCCOCC(=O)N[C@@H](Cc1ccc(O)cc1)C(=O)NCC(=O)N[C@@H](Cc1c[nH]c2ccccc12)C(=O)N[C@@H](CC(C)C)C(=O)N[C@@H](CC(=O)O)C(=O)N[C@@H](Cc1ccccc1)C(N)=O)C(=O)O [Compound 106, [Lys(Hexadecanoyl-isoGlu)34]GLP-1(7-37)-Peg3-Peg3-[Leu4]Gastrin6]
– | – | 29 | CCCCCCCCCCCCCCCC(=O)N[C@@H](CCC(=O)NCCCC[C@H](NC(=O)[C@H](C)NC(=O)[C@H](C)NC(=O)[C@H](CCC(N)=O)NC(=O)CNC(=O)[C@H](CCC(=O)O)NC(=O)[C@H](CC(C)C)NC(=O)[C@H](Cc1ccc(O)cc1)NC(=O)[C@H](CO)NC(=O)[C@H](CO)NC(=O)[C@@H](NC(=O)[C@H](CC(=O)O)NC(=O)[C@H](CO)NC(=O)[C@@H](NC(=O)[C@H](Cc1ccccc1)NC(=O)[C@@H](NC(=O)CNC(=O)[C@H](CCC(=O)O)NC(=O)[C@H](C)NC(=O)[C@@H](N)Cc1c[nH]cn1)[C@@H](C)O)[C@@H](C)O)C(C)C)C(=O)N[C@@H](CCC(=O)O)C(=O)N[C@@H](Cc1ccccc1)C(=O)N[C@H](C(=O)N[C@@H](C)C(=O)N[C@@H](Cc1c[nH]c2ccccc12)C(=O)N[C@@H](CC(C)C)C(=O)N[C@H](C(=O)N[C@@H](CCCNC(=N)N)C(=O)NCC(=O)N[C@@H](CCCNC(=N)N)C(=O)NCC(=O)NCCOCCOCC(=O)NCCOCCOCC(=O)N[C@@H](Cc1ccc(O)cc1)C(=O)NCC(=O)N[C@@H](Cc1c[nH]c2ccccc12)C(=O)N[C@@H](CC(C)C)C(=O)N[C@@H](CC(=O)O)C(=O)N[C@@H](Cc1ccccc1)C(N)=O)C(C)C)[C@@H](C)CC)C(=O)O [Compound 107, [Arg34,Lys(Hexadecanoyl-isoGlu)26]GLP-1(7-37)-Peg3-Peg3-[Leu4]Gastrin6]
– | – | 26 | CCCCCCCCCCCCCCCC(=O)N[C@@H](CCC(=O)NCCCC[C@H](NC(=O)[C@H](C)NC(=O)[C@H](C)NC(=O)[C@H](CCC(N)=O)NC(=O)CNC(=O)[C@H](CCC(=O)O)NC(=O)[C@H](CC(C)C)NC(=O)[C@H](Cc1ccc(O)cc1)NC(=O)[C@H](CO)NC(=O)[C@H](CO)NC(=O)[C@@H](NC(=O)[C@H](CC(=O)O)NC(=O)[C@H](CO)NC(=O)[C@@H](NC(=O)[C@H](Cc1ccccc1)NC(=O)[C@@H](NC(=O)CNC(=O)[C@H](CCC(=O)O)NC(=O)[C@H](C)NC(=O)[C@@H](N)Cc1c[nH]cn1)[C@@H](C)O)[C@@H](C)O)C(C)C)C(=O)N[C@@H](CCC(=O)O)C(=O)N[C@@H](Cc1ccccc1)C(=O)N[C@H](C(=O)N[C@@H](C)C(=O)N[C@@H](Cc1c[nH]c2ccccc12)C(=O)N[C@@H](CC(C)C)C(=O)N[C@H](C(=O)N[C@@H](CCCCN)C(=O)NCC(=O)N[C@@H](CCCNC(=N)N)C(=O)NCC(=O)NCCOCCOCC(=O)NCCOCCOCC(=O)N[C@@H](Cc1ccc(O)cc1)C(=O)NCC(=O)N[C@@H](Cc1c[nH]c2ccccc12)C(=O)N[C@@H](CC(C)C)C(=O)N[C@@H](CC(=O)O)C(=O)N[C@@H](Cc1ccccc1)C(N)=O)C(C)C)[C@@H](C)CC)C(=O)O [Compound 109, [Lys(Hexadecanoyl-isoGlu)26]GLP-1(7-37)-Peg3-Peg3-[Leu4]Gastrin6]
– | – | 24 | CC[C@H](C)[C@H](NC(=O)[C@H](Cc1ccccc1)NC(=O)[C@H](CCC(=O)O)NC(=O)[C@H](CCCCN)NC(=O)[C@H](C)NC(=O)[C@H](C)NC(=O)[C@H](CCC(N)=O)NC(=O)CNC(=O)[C@H](CCC(=O)O)NC(=O)[C@H](CC(C)C)NC(=O)[C@H](Cc1ccc(O)cc1)NC(=O)[C@H](CO)NC(=O)[C@H](CO)NC(=O)[C@@H](NC(=O)[C@H](CC(=O)O)NC(=O)[C@H](CO)NC(=O)[C@@H](NC(=O)[C@H](Cc1ccccc1)NC(=O)[C@@H](NC(=O)CNC(=O)[C@H](CCC(=O)O)NC(=O)[C@H](C)NC(=O)[C@@H](N)Cc1c[nH]cn1)[C@@H](C)O)[C@@H](C)O)C(C)C)C(=O)N[C@@H](C)C(=O)N[C@@H](Cc1c[nH]c2ccccc12)C(=O)N[C@@H](CC(C)C)C(=O)N[C@H](C(=O)N[C@@H](CCCNC(=N)N)C(=O)NCC(=O)N[C@@H](CCCNC(=N)N)C(=O)NCC(=O)NCCOCCOCC(=O)NCCOCCOCC(=O)N[C@@H](Cc1ccc(O)cc1)C(=O)NCC(=O)N[C@@H](Cc1c[nH]c2ccccc12)C(=O)N[C@@H](CC(C)C)C(=O)N[C@@H](CC(=O)O)C(=O)N[C@@H](Cc1ccccc1)C(N)=O)C(C)C [Compound 113, [Arg34]GLP-1(7-37)-Peg3-Peg3-[Leu4]Gastrin6]

— patent US10406207B2, “Peptide conjugates of GLP-1 receptor agonists and gastrin and their use” (priority 2010, dated 2019)
